Columns and labels:
[1] = target: T1, Dual specificity mitogen-activated protein kinase kinase 4 (Homo sapiens) (UniProt P45985); conditions: at 10 µM
T1 sequence (whole entry): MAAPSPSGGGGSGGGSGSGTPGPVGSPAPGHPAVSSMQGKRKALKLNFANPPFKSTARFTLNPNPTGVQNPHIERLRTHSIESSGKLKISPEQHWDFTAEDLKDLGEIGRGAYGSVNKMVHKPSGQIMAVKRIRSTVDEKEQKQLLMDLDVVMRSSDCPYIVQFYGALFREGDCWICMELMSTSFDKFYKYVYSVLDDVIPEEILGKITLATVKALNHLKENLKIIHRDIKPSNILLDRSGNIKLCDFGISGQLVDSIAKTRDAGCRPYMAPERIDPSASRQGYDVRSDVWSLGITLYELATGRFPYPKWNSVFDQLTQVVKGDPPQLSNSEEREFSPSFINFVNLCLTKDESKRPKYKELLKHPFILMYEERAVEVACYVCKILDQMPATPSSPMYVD

[2] = target: T2, Myosin-IIIb (Homo sapiens) (UniProt Q8WXR4); assay: Selectivity interaction (KinomeScan (DiscoverX)) EUB0001079a MYO3B; conditions: at 1 µM
T2 sequence (whole entry): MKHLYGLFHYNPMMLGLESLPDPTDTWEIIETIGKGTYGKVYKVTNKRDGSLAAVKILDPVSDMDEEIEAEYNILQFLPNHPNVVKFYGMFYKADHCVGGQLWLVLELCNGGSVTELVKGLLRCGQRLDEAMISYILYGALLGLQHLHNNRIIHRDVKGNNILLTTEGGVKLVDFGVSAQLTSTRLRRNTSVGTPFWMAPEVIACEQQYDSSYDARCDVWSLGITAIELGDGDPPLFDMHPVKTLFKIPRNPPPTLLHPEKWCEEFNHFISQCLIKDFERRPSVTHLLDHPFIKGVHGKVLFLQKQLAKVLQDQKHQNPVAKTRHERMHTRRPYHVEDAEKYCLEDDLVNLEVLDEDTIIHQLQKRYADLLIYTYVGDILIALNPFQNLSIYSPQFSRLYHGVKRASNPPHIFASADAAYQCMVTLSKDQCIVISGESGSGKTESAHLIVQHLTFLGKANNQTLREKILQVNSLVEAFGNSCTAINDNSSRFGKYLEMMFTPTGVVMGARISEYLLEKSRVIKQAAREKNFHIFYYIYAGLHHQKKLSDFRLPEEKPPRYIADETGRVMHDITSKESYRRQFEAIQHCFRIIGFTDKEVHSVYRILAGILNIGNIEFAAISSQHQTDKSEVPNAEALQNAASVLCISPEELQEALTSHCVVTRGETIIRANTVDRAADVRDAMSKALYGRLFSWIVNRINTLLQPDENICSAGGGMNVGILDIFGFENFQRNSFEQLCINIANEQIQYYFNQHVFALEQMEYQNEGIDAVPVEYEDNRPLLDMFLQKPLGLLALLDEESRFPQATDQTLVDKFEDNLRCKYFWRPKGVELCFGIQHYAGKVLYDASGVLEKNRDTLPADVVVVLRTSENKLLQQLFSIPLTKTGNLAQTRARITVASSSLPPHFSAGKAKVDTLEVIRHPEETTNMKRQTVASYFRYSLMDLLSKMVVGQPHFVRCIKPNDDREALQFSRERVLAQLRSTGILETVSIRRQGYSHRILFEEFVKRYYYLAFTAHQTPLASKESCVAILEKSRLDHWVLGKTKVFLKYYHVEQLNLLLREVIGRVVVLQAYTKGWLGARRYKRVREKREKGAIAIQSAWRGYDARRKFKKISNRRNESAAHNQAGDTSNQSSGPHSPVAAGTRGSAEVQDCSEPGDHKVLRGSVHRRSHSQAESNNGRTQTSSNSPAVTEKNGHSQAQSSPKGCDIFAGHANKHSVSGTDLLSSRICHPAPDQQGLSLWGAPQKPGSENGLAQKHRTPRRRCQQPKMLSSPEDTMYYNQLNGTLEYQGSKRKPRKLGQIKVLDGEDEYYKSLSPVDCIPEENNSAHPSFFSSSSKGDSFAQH

[3] = target: T3, Serine/threonine-protein kinase Nek3 (Homo sapiens) (UniProt P51956); assay: Selectivity interaction (KinomeScan (DiscoverX)) EUB0000655a NEK3; conditions: at 10 µM
T3 sequence (whole entry): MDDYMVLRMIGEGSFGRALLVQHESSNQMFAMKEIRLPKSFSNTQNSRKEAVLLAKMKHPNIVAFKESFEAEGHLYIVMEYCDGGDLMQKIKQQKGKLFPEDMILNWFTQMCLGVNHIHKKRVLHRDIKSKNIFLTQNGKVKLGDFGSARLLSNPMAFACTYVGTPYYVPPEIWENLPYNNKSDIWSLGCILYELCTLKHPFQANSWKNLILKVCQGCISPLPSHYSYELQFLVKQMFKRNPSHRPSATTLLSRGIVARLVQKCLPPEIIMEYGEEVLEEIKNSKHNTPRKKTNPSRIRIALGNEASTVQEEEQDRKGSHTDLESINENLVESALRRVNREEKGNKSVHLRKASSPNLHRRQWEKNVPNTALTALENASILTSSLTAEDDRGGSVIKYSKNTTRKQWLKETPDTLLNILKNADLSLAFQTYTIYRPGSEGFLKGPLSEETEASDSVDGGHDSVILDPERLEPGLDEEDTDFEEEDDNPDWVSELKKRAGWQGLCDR

[4] = target: Cyclin-dependent kinase 5 (Homo sapiens, UniProt Q00535); assay: Selectivity interaction (KinomeScan (DiscoverX)) EUB0001619a CDK5; conditions: at 1 µM
[5] = target: Dual specificity protein kinase CLK2 (Homo sapiens, UniProt P49760); assay: Selectivity interaction (KinomeScan (DiscoverX)) EUB0001619a CLK2; conditions: at 1 µM
[6] = target: T4, Serine/threonine-protein kinase 17A (Homo sapiens) (UniProt Q9UEE5); assay: Selectivity interaction (KinomeScan (DiscoverX)) EUB0001619a STK17A; conditions: at 1 µM
T4 sequence (whole entry): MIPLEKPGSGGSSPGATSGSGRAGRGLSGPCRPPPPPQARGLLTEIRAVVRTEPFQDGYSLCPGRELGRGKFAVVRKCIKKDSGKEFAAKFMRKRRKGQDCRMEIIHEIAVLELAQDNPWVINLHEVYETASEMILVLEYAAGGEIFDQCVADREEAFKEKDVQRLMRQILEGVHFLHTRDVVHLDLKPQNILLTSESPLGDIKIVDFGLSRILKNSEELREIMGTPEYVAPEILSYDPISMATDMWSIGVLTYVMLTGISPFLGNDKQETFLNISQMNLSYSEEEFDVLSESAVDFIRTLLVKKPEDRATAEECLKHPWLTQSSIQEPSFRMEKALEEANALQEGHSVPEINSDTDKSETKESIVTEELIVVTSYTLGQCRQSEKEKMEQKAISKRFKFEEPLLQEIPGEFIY

[7] = target: Serine/threonine-protein kinase 10 (Homo sapiens) (UniProt O94804); assay: Selectivity interaction (ActivX KiNativ screen (ex vivo kinase selectivity in human PBMCs)) EUB0001619a STK10; assay type: cell-based; conditions: PBMC, at 1 µM
[8] = target: Serine/threonine-protein kinase N2 (Homo sapiens, UniProt Q16513); assay: Selectivity interaction (KinomeScan (DiscoverX)) EUB0000607a PKN2; conditions: at 10 µM
Serine/threonine-protein kinase N2, sequence (Q16513 whole entry, looked up): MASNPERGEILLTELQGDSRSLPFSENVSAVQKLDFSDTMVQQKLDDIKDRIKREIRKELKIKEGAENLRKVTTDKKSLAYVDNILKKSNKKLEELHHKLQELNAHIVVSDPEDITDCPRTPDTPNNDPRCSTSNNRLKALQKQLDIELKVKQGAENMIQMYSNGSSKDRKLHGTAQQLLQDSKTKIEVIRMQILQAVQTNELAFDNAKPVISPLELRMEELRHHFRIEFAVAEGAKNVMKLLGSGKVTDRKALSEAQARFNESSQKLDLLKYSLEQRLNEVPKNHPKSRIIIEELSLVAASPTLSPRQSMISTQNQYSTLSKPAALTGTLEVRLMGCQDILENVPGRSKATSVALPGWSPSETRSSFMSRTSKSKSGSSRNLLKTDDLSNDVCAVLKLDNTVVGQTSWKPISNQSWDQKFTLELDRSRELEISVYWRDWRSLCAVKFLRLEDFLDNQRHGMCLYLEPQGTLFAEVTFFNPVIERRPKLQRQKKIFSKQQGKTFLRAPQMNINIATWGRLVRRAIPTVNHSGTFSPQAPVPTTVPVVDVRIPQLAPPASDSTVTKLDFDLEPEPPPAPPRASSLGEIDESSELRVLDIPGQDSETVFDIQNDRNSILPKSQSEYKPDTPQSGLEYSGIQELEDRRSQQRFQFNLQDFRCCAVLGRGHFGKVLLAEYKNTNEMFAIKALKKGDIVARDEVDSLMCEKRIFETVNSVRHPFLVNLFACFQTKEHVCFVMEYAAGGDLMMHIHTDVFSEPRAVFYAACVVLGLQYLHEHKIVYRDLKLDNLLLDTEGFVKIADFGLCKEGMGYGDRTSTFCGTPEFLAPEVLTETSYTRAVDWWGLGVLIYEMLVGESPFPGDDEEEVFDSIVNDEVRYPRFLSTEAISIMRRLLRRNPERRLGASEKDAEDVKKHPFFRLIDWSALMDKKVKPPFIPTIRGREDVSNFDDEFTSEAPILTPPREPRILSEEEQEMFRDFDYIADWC

Cyclin-dependent kinase 5, sequence (Q00535 whole entry, looked up): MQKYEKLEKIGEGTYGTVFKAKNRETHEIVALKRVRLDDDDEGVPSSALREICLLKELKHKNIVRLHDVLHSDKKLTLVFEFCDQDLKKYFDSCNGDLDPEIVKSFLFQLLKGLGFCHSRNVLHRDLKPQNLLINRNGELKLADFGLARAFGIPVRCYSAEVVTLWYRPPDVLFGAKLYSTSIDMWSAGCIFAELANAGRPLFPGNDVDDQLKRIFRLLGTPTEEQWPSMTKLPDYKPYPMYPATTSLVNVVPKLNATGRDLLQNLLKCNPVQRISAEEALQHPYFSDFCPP
Serine/threonine-protein kinase 10 (Homo sapiens), sequence (O94804 whole entry, looked up): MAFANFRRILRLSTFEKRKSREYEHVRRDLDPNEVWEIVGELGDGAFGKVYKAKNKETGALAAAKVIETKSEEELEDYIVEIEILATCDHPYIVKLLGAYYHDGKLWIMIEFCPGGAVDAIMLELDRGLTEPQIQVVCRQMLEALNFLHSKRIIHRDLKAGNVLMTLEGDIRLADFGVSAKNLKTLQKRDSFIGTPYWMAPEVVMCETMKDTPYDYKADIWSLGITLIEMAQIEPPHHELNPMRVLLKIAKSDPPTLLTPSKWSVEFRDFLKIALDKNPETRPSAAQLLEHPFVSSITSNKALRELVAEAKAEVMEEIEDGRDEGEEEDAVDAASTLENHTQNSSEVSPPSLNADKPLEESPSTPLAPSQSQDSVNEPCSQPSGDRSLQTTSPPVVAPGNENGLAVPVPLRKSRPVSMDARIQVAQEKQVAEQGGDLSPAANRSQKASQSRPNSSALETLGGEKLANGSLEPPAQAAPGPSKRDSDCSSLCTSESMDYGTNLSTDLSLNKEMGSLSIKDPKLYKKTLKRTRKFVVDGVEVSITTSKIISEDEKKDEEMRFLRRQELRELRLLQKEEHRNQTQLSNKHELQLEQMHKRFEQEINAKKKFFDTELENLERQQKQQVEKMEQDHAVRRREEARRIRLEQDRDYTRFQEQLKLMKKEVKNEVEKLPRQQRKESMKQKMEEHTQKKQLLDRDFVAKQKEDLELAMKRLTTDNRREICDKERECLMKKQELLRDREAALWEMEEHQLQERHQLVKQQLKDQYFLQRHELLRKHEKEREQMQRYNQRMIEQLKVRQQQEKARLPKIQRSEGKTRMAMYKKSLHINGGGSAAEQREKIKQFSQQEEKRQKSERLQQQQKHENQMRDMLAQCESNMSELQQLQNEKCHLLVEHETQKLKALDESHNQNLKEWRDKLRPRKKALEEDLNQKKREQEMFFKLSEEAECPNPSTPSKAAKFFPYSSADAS
Dual specificity protein kinase CLK2, sequence (P49760 whole entry, looked up): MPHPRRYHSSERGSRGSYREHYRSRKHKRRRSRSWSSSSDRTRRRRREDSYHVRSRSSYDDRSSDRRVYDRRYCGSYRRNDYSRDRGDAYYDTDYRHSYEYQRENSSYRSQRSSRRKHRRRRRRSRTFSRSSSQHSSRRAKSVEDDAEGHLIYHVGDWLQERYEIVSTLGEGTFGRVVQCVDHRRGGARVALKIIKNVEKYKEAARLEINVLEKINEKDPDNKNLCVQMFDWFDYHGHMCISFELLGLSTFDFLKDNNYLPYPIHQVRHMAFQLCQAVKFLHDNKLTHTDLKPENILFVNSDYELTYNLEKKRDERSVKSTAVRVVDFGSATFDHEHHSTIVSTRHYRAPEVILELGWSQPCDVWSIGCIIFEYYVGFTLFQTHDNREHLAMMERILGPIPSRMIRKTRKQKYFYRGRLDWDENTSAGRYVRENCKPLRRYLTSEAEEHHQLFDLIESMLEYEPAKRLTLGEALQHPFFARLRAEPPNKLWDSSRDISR

Cc1cc([C@@H](C)Nc2ccccc2C(=O)O)c2nc(N3CCOCC3)cc(=O)n2c1 [AZD-6482]
% of control [1]: 100%

Nc1cnc(N2CCc3cc(S(=O)(=O)Nc4c(F)cc(Cl)cc4F)cc(N4CCCC4=O)c32)nc1 [TP-020n]
% of control [2]: 100%

CN(C)CCOc1ccc(-c2nc(-c3ccncc3)c(-c3ccc4c(c3)CC/C4=N\O)[nH]2)cc1
% of control [3]: 71%

N#Cc1cccc(-c2c[nH]c3ncnc(N4CCOCC4)c23)c1
% of control [4]: 92%
% of control [5]: 64%
% of control [6]: 88%
% of inhibition [7]: 54%

CNC(=O)Nc1ccc(-c2nc(N3CC4CCC(C3)O4)c3cnn(C4CCC5(CC4)OCCO5)c3n2)cc1
% of control [8]: 83%
